Test results as given in patent publication US20250290117A1, “MOLECULAR PHENOTYPIC ANTIMICROBIAL SUSCEPTIBILITY TESTING” (priority 2024, published 2025).

Tests used:
[1] = test system: Staphylococcus epidermidis; test: Traditional culture-based antimicrobial susceptibility test; assay type: cell-based
Source text: Table 1 illustrates the results of an example antimicrobial agent susceptibility test of the current application versus a traditional culture-based antimicrobial agent susceptibility test for Staphylococcus epidermidis. This specimen underwent extraction or DNA purification prior to PCR. The results of the test of the current application are similar to the results from the traditional test, with the results from the test of the current application being reportable considerably earlier than the test of the traditional test due no pathogen isolation requirement and due to less incubation time being required for the test of the current application. Result Reporting to Healthcare Providers. The results from the antimicrobial exposure are reported to the ordering healthcare provider. This information can be utilized by the healthcare provider when selecting an antimicrobial regimen for their individual patient based on these individual specimen results and patient specific factors. […] The current standard of care for antimicrobial susceptibility testing involves the growth, isolation, and exposure of pathogens to antimicrobials. This traditional culture and sensitivity process can take multiple days to obtain results, limiting the ability of healthcare providers to receive timely results to make actionable changes in patient care or management. Healthcare providers desire a method to obtain antimicrobial susceptibility results with quicker turn-around-time. This application discloses a molecular-based phenotypic antimicrobial susceptibility method which involves pathogen exposure to a panel of antimicrobial agents at their specified minimum inhibitory concentration breakpoints for sensitivity. This method allows for more timely antimicrobial susceptibility results.

S. aureus = test: as above; assay type: cell-based, Staphylococcus aureus; conditions: S. aureus isolate NR-46412 HIP13170
Experimental: (§1) Table 5 illustrates the results of an example antimicrobial agent susceptibility test of the current application versus a traditional culture-based antimicrobial agent susceptibility test for multiple specimens with different pathogens, in accordance with one or more embodiments of the disclosure. These specimens were tested with direct PCR (e.g., no extraction DNA purification step prior to PCR). As in Tables 1, 2, and 3, the results of the test of the current application are similar to the results from the traditional test.
(§2) Result Reporting to Healthcare Providers. The results from the antimicrobial exposure are reported to the ordering healthcare provider. This information can be utilized by the healthcare provider when selecting an antimicrobial regimen for their individual patient based on these individual specimen results and patient specific factors. […] The current standard of care for antimicrobial susceptibility testing involves the growth, isolation, and exposure of pathogens to antimicrobials. This traditional culture and sensitivity process can take multiple days to obtain results, limiting the ability of healthcare providers to receive timely results to make actionable changes in patient care or management. Healthcare providers desire a method to obtain antimicrobial susceptibility results with quicker turn-around-time. This application discloses a molecular-based phenotypic antimicrobial susceptibility method which involves pathogen exposure to a panel of antimicrobial agents at their specified minimum inhibitory concentration breakpoints for sensitivity. This method allows for more timely antimicrobial susceptibility results.

[2] = test system: Staphylococcus epidermidis; test: Molecular phenotypic antimicrobial susceptibility test (semi-quantitative PCR after antimicrobial exposure; extraction/DNA purification prior to PCR); assay type: cell-based
Experimental: (§3) Detection of Molecular Phenotypic Antimicrobial Susceptibility. Disclosed herein are the methods for the detection of phenotypic antimicrobial susceptibility via molecular methods. The present invention describes how a specimen 100 with a known microbial load is incubated and then exposed to a panel of antimicrobial agents to determine sensitivity (prevention of growth) or resistance (allowance of growth) to the specific antimicrobial agents tested utilizing molecular methods.
(§4) Sample Collection. Specimens 100 are collected from patients using sterile collection processes that are employed in routine clinical care. Specimens are transported to the testing facility in boric acid preservative. Specimens 100 are subsequently divided into a first sample 104 and a second sample 108.
(§5) Preparation of the Specimens for Testing. The specimens 100 are put through a pathogen identification process using PCR technology (e.g., using the first sample 104). The process for pathogen isolation includes steps of harvesting the pathogen (e.g., via centrifugation), isolating pathogen DNA via a DNA isolation and/or purification kit, and performing PCR on the pathogen DNA via PCR components (e.g., primers, enzymes, buffers) as would be known to the skilled artisan. Simultaneously, an additional aliquot of the same specimen (e.g., the second sample 108) is placed with liquid culture media and incubated for 4-6 hours. This aliquot is used for antimicrobial susceptibility testing if indicated based on the pathogen detection results. After pathogen identification is completed and if more than 10,000 cells/mL of bacteria (e.g., eligible bacteria) are detected in the source specimen, the second sample 108 then enters the antimicrobial susceptibility phase of testing. Specimens 100 with lower pathogen loads could also be utilized in the antibiotic susceptibility phase of testing with or without a longer incubation period.
(§6) Preparation of Antimicrobial Susceptibility Testing Plates. Antimicrobial solutions are prepared at known concentrations. The specific antimicrobials and their concentrations are selected based on the pathogen of interest and the described antimicrobial resistance breakpoints for that specimen pathogen and antimicrobial combination. These antimicrobials have been selected based on those commonly utilized by healthcare providers in routine clinical care for the specific type of suspected infection. The number and types of antimicrobials utilized can be customized based on the infection source, pathogen detected, patient-specific factors such as allergies or other health conditions (e.g., chronic kidney disease or concurrent medication use), or healthcare provider preferences such as antimicrobial availability or cost.
(§7) The antimicrobial solutions are prepared in liquid culture media (such as Muller Hinton Broth) to achieve the desired antimicrobial concentration and are then stored at −80° C. until use. For a given specimen, each antimicrobial is tested at a single or multiple antimicrobial concentration(s) which is its established breakpoints for sensitivity. The antimicrobial solutions are prepared and plated out for each specific pathogen. This allows ease of use on the day of testing after defrosting the plate 112. Table 1, which illustrates the results of molecular phenotypic antimicrobial susceptibility testing when more than one organism is present in the source specimen, provides an example of an antimicrobial plate 112 prepared for this purpose. Of note, control wells containing only culture media are present on all plates 112. This allows for evaluation of pathogen load when no antimicrobial is present.
(§8) Specimen Exposure to Antimicrobial Agents. The 1 mL aliquot of the specimen 100 previously mixed with culture media and incubated is obtained. Using optical density measurements as a guide, the specimen 100 is diluted to 0.5 McFarland. […]

P. aeruginosa [3] = test: Molecular phenotypic antimicrobial susceptibility test with direct PCR (no extraction DNA purification step); assay type: cell-based, Pseudomonas aeruginosa; conditions: for Ct at Sensitive Breakpoint: P. aeruginosa isolate MRSN1938, Ct at control (average) 12.031; for Molecular Antimicrobial Susceptibility Result: P. aeruginosa isolate MRSN1938, at sensitive breakpoint
Experimental: as §3, §4, §5, §6, §7, §8

P. aeruginosa [4] = test: Traditional culture-based antimicrobial susceptibility test; assay type: cell-based, Pseudomonas aeruginosa; conditions: P. aeruginosa isolate MRSN1938
Experimental: as §1, §2

[5] = S. epidermidis isolate 1, Ct at control (average) 10.611
[6] = S. epidermidis isolate 1, at sensitive breakpoint
[7] = S. epidermidis isolate 2, Ct at control (average) 11.861
[8] = S. epidermidis isolate 2, at sensitive breakpoint
[9] = S. epidermidis isolate 3, Ct at control (average) 12.941
[10] = S. epidermidis isolate 3, at sensitive breakpoint
[11] = S. epidermidis isolate 4, Ct at control (average) 11.861
[12] = S. epidermidis isolate 4, at sensitive breakpoint
[13] = S. epidermidis isolate 5, Ct at control (average) 12.941
[14] = S. epidermidis isolate 5, at sensitive breakpoint

Molecule: CN[C@H](CC(C)C)C(=O)N[C@H]1C(=O)N[C@@H](CC(N)=O)C(=O)N[C@H]2C(=O)N[C@H]3C(=O)N[C@H](C(=O)N[C@H](C(=O)O)c4cc(O)cc(O)c4-c4cc3ccc4O)[C@H](O)c3ccc(c(Cl)c3)Oc3cc2cc(c3O[C@@H]2O[C@H](CO)[C@@H](O)[C@H](O)[C@H]2O[C@H]2C[C@](C)(N)[C@H](O)[C@H](C)O2)Oc2ccc(cc2Cl)[C@H]1O [Vancomycin]
- Traditional Culture Result ([1]; S. epidermidis isolate 1): Sensitive
- Traditional Culture Result ([1]; S. epidermidis isolate 2): Sensitive
- Traditional Culture Result ([1]; S. epidermidis isolate 3): Sensitive
- Traditional Culture Result ([1]; S. epidermidis isolate 4): Sensitive
- Traditional Culture Result ([1]; S. epidermidis isolate 5): Sensitive
- Traditional Culture Result (S. aureus): Resistant
- Ct at Sensitive Breakpoint [2, 5]: 12.950
- Molecular Antimicrobial Susceptibility Result [2, 6]: Sensitive (Antimicrobial wells with pathogen load detected below the control wells (typically >2 cycle thresholds later) may be reported as Sensitive)
- Ct at Sensitive Breakpoint [2, 7]: 18.235
- Molecular Antimicrobial Susceptibility Result [2, 8]: Sensitive (Antimicrobial wells with pathogen load detected below the control wells (typically >2 cycle thresholds later) may be reported as Sensitive)
- Ct at Sensitive Breakpoint [2, 9]: 18.173
- Molecular Antimicrobial Susceptibility Result [2, 10]: Sensitive (Antimicrobial wells with pathogen load detected below the control wells (typically >2 cycle thresholds later) may be reported as Sensitive)
- Ct at Sensitive Breakpoint [2, 11]: 20.001
- Molecular Antimicrobial Susceptibility Result [2, 12]: Sensitive (Antimicrobial wells with pathogen load detected below the control wells (typically >2 cycle thresholds later) may be reported as Sensitive)
- Ct at Sensitive Breakpoint [2, 13]: 8.719
- Molecular Antimicrobial Susceptibility Result [2, 14]: Resistant

Molecule: Gentamicin
- Traditional Culture Result (S. aureus): Resistant

Molecule: CO/N=C(\C(=O)N[C@@H]1C(=O)N2C(C(=O)[O-])=C(C[N+]3(C)CCCC3)CS[C@H]12)c1csc(N)n1 [Cefepime]
- Ct at Sensitive Breakpoint (P. aeruginosa [3]): 13.373
- Molecular Antimicrobial Susceptibility Result (P. aeruginosa [3]): Sensitive (Antimicrobial wells with pathogen load detected below the control wells (typically >2 cycle thresholds later) may be reported as Sensitive)
- Traditional Culture Result ([1]; S. epidermidis isolate 1): Resistant
- Traditional Culture Result ([1]; S. epidermidis isolate 2): Resistant
- Traditional Culture Result ([1]; S. epidermidis isolate 3): Resistant
- Traditional Culture Result ([1]; S. epidermidis isolate 4): Resistant
- Traditional Culture Result ([1]; S. epidermidis isolate 5): Resistant
- Ct at Sensitive Breakpoint [2, 5]: 11.785
- Molecular Antimicrobial Susceptibility Result [2, 6]: Resistant
- Ct at Sensitive Breakpoint [2, 7]: 8.669
- Molecular Antimicrobial Susceptibility Result [2, 8]: Resistant
- Ct at Sensitive Breakpoint [2, 9]: 8.646
- Molecular Antimicrobial Susceptibility Result [2, 10]: Resistant
- Ct at Sensitive Breakpoint [2, 11]: 8.418
- Molecular Antimicrobial Susceptibility Result [2, 12]: Resistant
- Ct at Sensitive Breakpoint [2, 13]: 8.474
- Molecular Antimicrobial Susceptibility Result [2, 14]: Resistant
- Traditional Culture Result (P. aeruginosa [4]): Sensitive

Molecule: C[C@@H](O)[C@H]1C(=O)N2C(C(=O)O)=C(S[C@@H]3CN[C@H](C(=O)N(C)C)C3)[C@H](C)[C@H]12 [Meropenem]
- Ct at Sensitive Breakpoint (P. aeruginosa [3]): 12.404
- Molecular Antimicrobial Susceptibility Result (P. aeruginosa [3]): Resistant
- Traditional Culture Result (P. aeruginosa [4]): Resistant*

Molecule: CO[C@@]1(NC(=O)Cc2cccs2)C(=O)N2C(C(=O)O)=C(COC(N)=O)CS[C@@H]21 [Cefoxitin]
- Traditional Culture Result (S. aureus): Resistant

Molecule: Piperacillin/Tazobactam
- Ct at Sensitive Breakpoint (P. aeruginosa [3]): 13.375
- Molecular Antimicrobial Susceptibility Result (P. aeruginosa [3]): Sensitive (Antimicrobial wells with pathogen load detected below the control wells (typically >2 cycle thresholds later) may be reported as Sensitive)
- Traditional Culture Result (P. aeruginosa [4]): Sensitive

Molecule: O=C(O)c1cn(C2CC2)c2cc(N3CCNCC3)c(F)cc2c1=O [Ciprofloxacin]
- Ct at Sensitive Breakpoint (P. aeruginosa [3]): 12.239
- Molecular Antimicrobial Susceptibility Result (P. aeruginosa [3]): Resistant
- Traditional Culture Result (S. aureus): Resistant
- Traditional Culture Result (P. aeruginosa [4]): Resistant

Molecule: Trimethoprim/Sulfamethoxazole [TMP/SMX]
- Traditional Culture Result ([1]; S. epidermidis isolate 1): Resistant
- Traditional Culture Result ([1]; S. epidermidis isolate 2): Resistant
- Traditional Culture Result ([1]; S. epidermidis isolate 3): Resistant
- Traditional Culture Result ([1]; S. epidermidis isolate 4): Resistant
- Traditional Culture Result ([1]; S. epidermidis isolate 5): Resistant
- Traditional Culture Result (S. aureus): Sensitive
- Ct at Sensitive Breakpoint [2, 5]: 10.79
- Molecular Antimicrobial Susceptibility Result [2, 6]: Resistant
- Ct at Sensitive Breakpoint [2, 7]: 10.503
- Molecular Antimicrobial Susceptibility Result [2, 8]: Resistant
- Ct at Sensitive Breakpoint [2, 9]: 11.341
- Molecular Antimicrobial Susceptibility Result [2, 10]: Resistant
- Ct at Sensitive Breakpoint [2, 11]: 10.970
- Molecular Antimicrobial Susceptibility Result [2, 12]: Resistant
- Ct at Sensitive Breakpoint [2, 13]: 12.620
- Molecular Antimicrobial Susceptibility Result [2, 14]: Resistant

Molecule: C[C@H]1COc2c(N3CCN(C)CC3)c(F)cc3c(=O)c(C(=O)O)cn1c23 [Levofloxacin]
- Ct at Sensitive Breakpoint (P. aeruginosa [3]): 12.853
- Molecular Antimicrobial Susceptibility Result (P. aeruginosa [3]): Resistant
